Experiments:
[1] = test system: keratoconjunctivitis sicca (dry eye) animal model; conditions: imatinib eye drop (0.1 mg/ml), twice a day for 1 week; FIG. 4
Description: White SD rats were used as an animal, and keratoconjunctivitis sicca was induced by administering 1% atropine sulfate and 0.1% benzalkonium chloride dropwise to an eye twice a day for 2 weeks.
An imatinib eye drop (0.1 mg/ml) was administered dropwise to an eye twice a day for 1 week after 7 days of administration of 1% atropine sulfate and 0.1% benzalkonium chloride.
In order to observe corneal degeneration in the keratoconjunctivitis sicca (dry eye) model, F-actin staining was performed. F-actin was stained with phalloidin labeled with a fluorescent material.

[2] = test system: keratoconjunctivitis sicca (dry eye) animal model; experiment: Corneal epithelium protection: lissamine green staining of the cornea in keratoconjunctivitis sicca model; format: in vivo, Spraque-Dawley (SD) rats
Description: To carry out an experiment for dry corneal epithelial damage, a dry eye animal model was constructed. 8-week-old Spraque-Dawley (SD) rats (available from Orient Bio) were used as an animal, keratoconjunctivitis sicca was induced by administering an eye drop containing 0.1% benzalkonium chloride (Sigma Aldrich) in 1% atropine sulfate (Alcon) twice a day for 2 weeks.
The imatinib eye drop (1 mg/ml) was administered dropwise to an eye twice a day for 1 week after 7 days of administration of 1% atropine sulfate and 0.1% benzalkonium chloride. To compare therapeutic effects, a 0.05% Cyclosporin eye drop (Restasis, Allergan) was used as a reference drug.
Corneal epithelial damage was identified in the keratoconjunctivitis sicca animal model by staining a surface of the cornea with a 1% lissamin green solution and observing a damaged region thereof (see FIG. 1).
Damage to corneal epithelium cells due to dryness was identified in a keratoconjunctivitis sicca (dry eye)-induced cornea by staining a dried state of the corneal epithelium cells with lissamin green (see FIG. 1). […] A stained area after staining was expressed as a percentage (%) with respect to a total corneal area.

[3] = test system: keratoconjunctivitis sicca (dry eye) animal model; experiment: Invasion of specific inflammatory cells into the cornea: LSP-1 immunostaining in keratoconjunctivitis sicca model; format: in vivo, Spraque-Dawley (SD) rats; conditions: imatinib eye drop 0.1%
Description: An experiment was carried out using the same administration method as that used in the animal model of Example 1, and then an inflammation inhibitory effect of imatinib on specific inflammatory cells invaded into the cornea was identified.
To identify inflammatory cells in the cornea in keratoconjunctivitis sicca (dry eye), the eye was cryosectioned, and inflammatory cells having an antigen of LSP-1 were stained and observed (See FIG. 5). Inflammation-associated cells such as lymphocytes, neutrophils, and macrophages have LSP-1 can be observed after being immunostained using an LSP-1 antibody. Inflammatory cells were observed by 0.61±0.05 in a control (a drug-non-treated group) and by 0.52±0.05 in an imatinib eye drop (0.1%) (See FIG. 6).

Cc1ccc(NC(=O)c2ccc(CN3CCN(C)CC3)cc2)cc1Nc1nccc(-c2cccnc2)n1 [imatinib]
corneal degeneration (keratinization of corneal epithelial cells, F-actin staining) [1]: not observed | lissamine green stained area as percentage of total corneal area ([2]; concentration-dependent efficacy test, 0.01% (0.1 mg/ml), vehicle control 12.8±1.98%, FIG. 3): 8.2±0.97% | lissamine green stained area as percentage of total corneal area ([2]; concentration-dependent efficacy test, 0.05% (0.5 mg/ml), vehicle control 12.8±1.98%, FIG. 3): 6.18±0.9% | lissamine green stained area as percentage of total corneal area ([2]; concentration-dependent efficacy test, 0.1% (1 mg/ml), vehicle control 12.8±1.98%, FIG. 3): 3.7±0.87% | lissamine green stained area as percentage of total corneal area ([2]; concentration-dependent efficacy test, 0.5% (5 mg/ml), vehicle control 12.8±1.98%, FIG. 3): 3.5±1.1% | lissamine green stained area as percentage of total corneal area ([2]; concentration-dependent efficacy test, 1.0% (10 mg/ml), vehicle control 12.8±1.98%, FIG. 3): 3.1±1.2% | effect on lissamine green staining when administered according to concentration ([2]; imatinib 0.01% to 1.0%, FIG. 3): concentration-dependent effect | lissamine green stained area as percentage of total corneal area ([2]; imatinib 0.1% (1 mg/ml) eye drop, twice a day for 1 week, vehicle control 11±1.26%, FIG. 2): 2.6±0.39% | effect on inflammation in keratoconjunctivitis sicca (inflammatory cell staining) [3]: had an inflammation inhibitory effect | inflammatory cells observed (LSP-1-stained cells in the cornea) ([3]; control (drug-non-treated group) 0.61±0.05, FIG. 6): 0.52±0.05

— patent US10231971B2, “Pharmaceutical composition for preventing and treating dry eye diseases, containing imatinib as active ingredient” (AVIXGEN INC., priority 2015, dated 2019)
